In patent US12310975B2, “Modulators of BCL6 proteolysis and associated methods of use” (Arvinas Operations, Inc., priority 2019, dated 2025):
pIC50: −log10 of the molar value.

Experiments:
BCL6 [1] = molecular target: T1, BCL6 (Homo sapiens (Human), UniProt P41182); assay: BCL6 TR-FRET assay (BCL6-Avitag-Biotin / BCoR-Cy5 peptide); type: binding; conditions: read-out: IC50
In short: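 After 30 min room-temperature preincubation of compound titrations with 2 nM biotinylated BCL6-Avitag, 100 nM Cy5-labelled BCoR peptide plus 2 nM Eu-streptavidin were added and TR-FRET read 2 h later. HEPES pH 7.5/125 mM NaCl buffer with Triton X, glutathione (or DTT) and BSA.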

BCL6 [2] = molecular target: T1, BCL6; assay: Immunofluorescence high content imaging of BCL6 degradation in T47D cells; type: cell-based; conditions: T47D
In short: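 T47D, 3 d compound exposure, 11-pt 3-fold series, top 0.1 or 1 μM final. Fix 4% PFA, Triton permeabilize, anti-BCL6 primary overnight 4 °C, Alexa-488 secondary. High-content imaging 10×, 4 fields/well, top-hat smoothing.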

Row | SMILES | pIC50 (BCL6 [1]) | Dmax (BCL6 [2])
1 | Cn1c(=O)n(CCC(C)(C)O)c2cc(Nc3nc(N4CCC(OC5CC6(CCN(c7cccc8c7C(=O)N(C7CCC(=O)NC7=O)C8=O)CC6)C5)CC4)ncc3Cl)ccc21 (centres unmarked) [compound 493, 4-(2-{[1-(5-chloro-4-{[3-(3-hydroxy-3-methylbutyl)-1-methyl-2-oxo-2,3-dihydro-1H-1,3-benzodiazol-5-yl]amino}pyrimidin-2-yl)piperidin-4-yl]oxy}-7-azaspiro[3.5]nonan-7-yl)-2-(2,6-dioxopiperidin-3-yl)-2,3-dihydro-1H-isoindole-1,3-dione] | 7.30 to 8.00 | < 50%
2 | CNC(=O)COc1cc2cc(Nc3nc(N4CCC(CN5CCC6(CCN(c7ccc8c(c7)C(=O)N(C7CCC(=O)NC7=O)C8=O)CC6)C5)CC4)ncc3Cl)ccc2n(C(C)C)c1=O (centres unmarked) [compound 494, 2-{[6-({5-chloro-2-[4-({8-[2-(2,6-dioxopiperidin-3-yl)-1,3-dioxo-2,3-dihydro-1H-isoindol-5-yl]-2,8-diazaspiro[4.5]decan-2-yl}methyl)piperidin-1-yl]pyrimidin-4-yl}amino)-2-oxo-1-(propan-2-yl)-1,2-dihydroquinolin-3-yl]oxy}-N-methylacetamide] | > 8.00 | 50 to 70%
3 | CNC(=O)COc1cc2cc(Nc3nc(N4CCC(CN5CCC6(CC5)CCN(c5ccc7c(c5)C(=O)N(C5CCC(=O)NC5=O)C7=O)CC6)CC4)ncc3Cl)ccc2n(C(C)C)c1=O (centres unmarked) [compound 495, 2-{[6-({5-chloro-2-[4-({9-[2-(2,6-dioxopiperidin-3-yl)-1,3-dioxo-2,3-dihydro-1H-isoindol-5-yl]-3,9-diazaspiro[5.5]undecan-3-yl}methyl)piperidin-1-yl]pyrimidin-4-yl}amino)-2-oxo-1-(propan-2-yl)-1,2-dihydroquinolin-3-yl]oxy}-N-methylacetamide] | > 8.00 | 50 to 70%
4 | CNC(=O)COc1cc2cc(Nc3nc(N4CCC5(CCN(CC6CCN(c7ccc8c(c7)C(=O)N(C7CCC(=O)NC7=O)C8=O)CC6)CC5)CC4)ncc3Cl)ccc2n(C(C)C)c1=O (centres unmarked) [compound 496, 2-{[6-({5-chloro-2-[9-({1-[2-(2,6-dioxopiperidin-3-yl)-1,3-dioxo-2,3-dihydro-1H-isoindol-5-yl]piperidin-4-yl}methyl)-3,9-diazaspiro[5.5]undecan-3-yl]pyrimidin-4-yl}amino)-2-oxo-1-(propan-2-yl)-1,2-dihydroquinolin-3-yl]oxy}-N-methylacetamide] | > 8.00 | 50 to 70%
5 | CNC(=O)COc1cc2cc(Nc3nc(N4CCC(CN5CCC6(CC5)CCN(c5ccc(N7CCC(=O)NC7=O)cc5)C6)CC4)ncc3Cl)ccc2n(C(C)C)c1=O [compound 497, 2-{[6-({5-chloro-2-[4-({2-[4-(2,4-dioxo-1,3-diazinan-1-yl)phenyl]-2,8-diazaspiro[4.5]decan-8-yl}methyl)piperidin-1-yl]pyrimidin-4-yl}amino)-2-oxo-1-(propan-2-yl)-1,2-dihydroquinolin-3-yl]oxy}-N-methylacetamide] | > 8.00 | < 50%
6 | CNC(=O)COc1cc2cc(Nc3nc(N4CCC(CN5CC(N6CCN(c7cccc8c7C(=O)N(C7CCC(=O)NC7=O)C8=O)CC6)C5)CC4)ncc3Cl)ccc2n(C(C)C)c1=O (centres unmarked) [compound 499, 2-({6-[(5-chloro-2-{4-[(3-{4-[2-(2,6-dioxopiperidin-3-yl)-1,3-dioxo-2,3-dihydro-1H-isoindol-4-yl]piperazin-1-yl}azetidin-1-yl)methyl]piperidin-1-yl}pyrimidin-4-yl)amino]-2-oxo-1-(propan-2-yl)-1,2-dihydroquinolin-3-yl}oxy)-N-methylacetamide] | > 8.00 | ≥ 70%

Next, values leading:

Row | pIC50 (BCL6 [1]) | Dmax (BCL6 [2]) | SMILES
7 | > 8.00 | 50 to 70% | CNC(=O)COc1cc2cc(Nc3nc(N4CCC(CN5CC6(CCN(c7ccc8c(c7)C(=O)N(C7CCC(=O)NC7=O)C8=O)C6)C5)CC4)ncc3Cl)ccc2n(C(C)C)c1=O (centres unmarked) [compound 500, 2-{[6-({5-chloro-2-[4-({6-[2-(2,6-dioxopiperidin-3-yl)-1,3-dioxo-2,3-dihydro-1H-isoindol-5-yl]-2,6-diazaspiro[3.4]octan-2-yl}methyl)piperidin-1-yl]pyrimidin-4-yl}amino)-2-oxo-1-(propan-2-yl)-1,2-dihydroquinolin-3-yl]oxy}-N-methylacetamide]
8 | > 8.00 | 50 to 70% | CNC(=O)COc1cc2cc(Nc3nc(N4CCC(CN5CC6(CCN(c7cccc8c7C(=O)N(C7CCC(=O)NC7=O)C8=O)C6)C5)CC4)ncc3Cl)ccc2n(C(C)C)c1=O (centres unmarked) [compound 501, 2-{[6-({5-chloro-2-[4-({6-[2-(2,6-dioxopiperidin-3-yl)-1,3-dioxo-2,3-dihydro-1H-isoindol-4-yl]-2,6-diazaspiro[3.4]octan-2-yl}methyl)piperidin-1-yl]pyrimidin-4-yl}amino)-2-oxo-1-(propan-2-yl)-1,2-dihydroquinolin-3-yl]oxy}-N-methylacetamide]
9 | > 8.00 | 50 to 70% | CNC(=O)COc1cc2cc(Nc3nc(N4CCC(CN5CCC6(C5)CN(c5cccc7c5C(=O)N(C5CCC(=O)NC5=O)C7=O)C6)CC4)ncc3Cl)ccc2n(C(C)C)c1=O (centres unmarked) [compound 502, 2-{[6-({5-chloro-2-[4-({2-[2-(2,6-dioxopiperidin-3-yl)-1,3-dioxo-2,3-dihydro-1H-isoindol-4-yl]-2,6-diazaspiro[3.4]octan-6-yl}methyl)piperidin-1-yl]pyrimidin-4-yl}amino)-2-oxo-1-(propan-2-yl)-1,2-dihydroquinolin-3-yl]oxy}-N-methylacetamide]
10 | > 8.00 | ≥ 70% | CNC(=O)COc1cc2cc(Nc3nc(N4CCN(CC5CCN(c6cccc7c6C(=O)N(C6CCC(=O)NC6=O)C7=O)CC5)CC4)ncc3Cl)ccc2n(CCC2COC2)c1=O (centres unmarked) [compound 503, 2-{[6-({5-chloro-2-[4-({1-[2-(2,6-dioxopiperidin-3-yl)-1,3-dioxo-2,3-dihydro-1H-isoindol-4-yl]piperidin-4-yl}methyl)piperazin-1-yl]pyrimidin-4-yl}amino)-1-[2-(oxetan-3-yl)ethyl]-2-oxo-1,2-dihydroquinolin-3-yl]oxy}-N-methylacetamide]
11 | 7.00 to 7.30 | ≥ 70% | CNC(=O)COc1cc2cc(Nc3nc(N4CCC[C@H](COc5cccc6c5C(=O)N(C5CCC(=O)NC5=O)C6=O)C4)ncc3Cl)ccc2n(CCC2COC2)c1=O (stereo partly drawn) [compound 504, 2-{[6-({5-chloro-2-[(3S)-3-({[2-(2,6-dioxopiperidin-3-yl)-1,3-dioxo-2,3-dihydro-1H-isoindol-4-yl]oxy}methyl)piperidin-1-yl]pyrimidin-4-yl}amino)-1-[2-(oxetan-3-yl)ethyl]-2-oxo-1,2-dihydroquinolin-3-yl]oxy}-N-methylacetamide]
12 | 7.00 to 7.30 | 50 to 70% | Cn1c(=O)n(CCC(C)(C)O)c2cc(Nc3nc(N4CCN(CC5CCN(c6cccc7c6C(=O)N(C6CCC(=O)NC6=O)C7=O)CC5)CC4)ncc3Cl)ccc21 (centres unmarked) [compound 505, 4-(4-{[4-(5-chloro-4-{[3-(3-hydroxy-3-methylbutyl)-1-methyl-2-oxo-2,3-dihydro-1H-1,3-benzodiazol-5-yl]amino}pyrimidin-2-yl)piperazin-1-yl]methyl}piperidin-1-yl)-2-(2,6-dioxopiperidin-3-yl)-2,3-dihydro-1H-isoindole-1,3-dione]
13 | > 8.00 | 50 to 70% | CNC(=O)COc1cc2cc(Nc3nc(N4CCC(CN5CCC6(CCN(c7cccc8c7C(=O)N(C7CCC(=O)NC7=O)C8=O)CC6)C5)CC4)ncc3Cl)ccc2n(C(C)C)c1=O (centres unmarked) [compound 506, 2-{[6-({5-chloro-2-[4-({8-[2-(2,6-dioxopiperidin-3-yl)-1,3-dioxo-2,3-dihydro-1H-isoindol-4-yl]-2,8-diazaspiro[4.5]decan-2-yl}methyl)piperidin-1-yl]pyrimidin-4-yl}amino)-2-oxo-1-(propan-2-yl)-1,2-dihydroquinolin-3-yl]oxy}-N-methylacetamide]
14 | > 8.00 | ≥ 70% | CNC(=O)COc1cc2cc(Nc3nc(N4CCC5(CCN(CC6CCN(c7ccc8c(c7)C(=O)N(C7CCC(=O)NC7=O)C8=O)CC6)C5)CC4)ncc3Cl)ccc2n(C(C)C)c1=O (centres unmarked) [compound 507, 2-{[6-({5-chloro-2-[2-({1-[2-(2,6-dioxopiperidin-3-yl)-1,3-dioxo-2,3-dihydro-1H-isoindol-5-yl]piperidin-4-yl}methyl)-2,8-diazaspiro[4.5]decan-8-yl]pyrimidin-4-yl}amino)-2-oxo-1-(propan-2-yl)-1,2-dihydroquinolin-3-yl]oxy}-N-methylacetamide]
15 | > 8.00 | ≥ 70% | CNC(=O)COc1cc2cc(Nc3nc(N4CCC5(CCN(CC6CCN(c7cccc8c7C(=O)N(C7CCC(=O)NC7=O)C8=O)CC6)C5)CC4)ncc3Cl)ccc2n(C(C)C)c1=O (centres unmarked) [compound 508, 2-{[6-({5-chloro-2-[2-({1-[2-(2,6-dioxopiperidin-3-yl)-1,3-dioxo-2,3-dihydro-1H-isoindol-4-yl]piperidin-4-yl}methyl)-2,8-diazaspiro[4.5]decan-8-yl]pyrimidin-4-yl}amino)-2-oxo-1-(propan-2-yl)-1,2-dihydroquinolin-3-yl]oxy}-N-methylacetamide]
16 | > 8.00 | 50 to 70% | CNC(=O)COc1cc2cc(Nc3nc(N4CCC(CN5CCC6(C5)CN(c5ccc7c(c5)C(=O)N(C5CCC(=O)NC5=O)C7=O)C6)CC4)ncc3Cl)ccc2n(C(C)C)c1=O (centres unmarked) [compound 510, 2-{[6-({5-chloro-2-[4-({2-[2-(2,6-dioxopiperidin-3-yl)-1,3-dioxo-2,3-dihydro-1H-isoindol-5-yl]-2,6-diazaspiro[3.4]octan-6-yl}methyl)piperidin-1-yl]pyrimidin-4-yl}amino)-2-oxo-1-(propan-2-yl)-1,2-dihydroquinolin-3-yl]oxy}-N-methylacetamide]
